Test results published in patent US6310213A, “Ethanesulfonyl-piperidine derivatives” (Hoffmann-La Roche Inc., priority 1999, dated 2001).
Several values for one entry are separate records, joined by “and”; a condition that tells them apart may be missing. Identical values can stand only once.

Tests used:
[1] = tested on: i.c.v. NMDA-induced convulsions in mice; experiment: Block of i.c.v. NMDA-induced convulsions in mice; type: in vivo; conditions: Mus musculus, iv
Source text: |^d Indicates potency in mg/kg i.v. to block i.c.v. NMDA-induced | convulsions in mice.

[2] = target: T1, NMDA NR2B subunit containing receptors (Rattus norvegicus, UniProt P35439+Q00960); experiment: 3H [R-(R*,S*)]-α-(4-Hydroxy-phenyl)-β-methyl-4-(phenyl-methyl)-1-piperidine propanol binding; parameters: species or system rat (Male Fullinsdorf albino rats); conditions: rat brain membranes, 5 nM radioligand, 2 hours at 4° C., pH 7.4; read-out: Inhibition of 3H [R-(R*, S*)]-α-(4-Hydroxy-phenyl)-β-methyl-4-(phenyl-methyl)-1-piperidine propanol binding IC50
T1 construct: Membranes were prepared by homogenization of the whole brain minus cerebellum and medulla oblongata; from tissue; host or cells: rat whole brain minus cerebellum and medulla oblongata, membranes
T1 sequence (Q00960 27-1482, other chains not shown): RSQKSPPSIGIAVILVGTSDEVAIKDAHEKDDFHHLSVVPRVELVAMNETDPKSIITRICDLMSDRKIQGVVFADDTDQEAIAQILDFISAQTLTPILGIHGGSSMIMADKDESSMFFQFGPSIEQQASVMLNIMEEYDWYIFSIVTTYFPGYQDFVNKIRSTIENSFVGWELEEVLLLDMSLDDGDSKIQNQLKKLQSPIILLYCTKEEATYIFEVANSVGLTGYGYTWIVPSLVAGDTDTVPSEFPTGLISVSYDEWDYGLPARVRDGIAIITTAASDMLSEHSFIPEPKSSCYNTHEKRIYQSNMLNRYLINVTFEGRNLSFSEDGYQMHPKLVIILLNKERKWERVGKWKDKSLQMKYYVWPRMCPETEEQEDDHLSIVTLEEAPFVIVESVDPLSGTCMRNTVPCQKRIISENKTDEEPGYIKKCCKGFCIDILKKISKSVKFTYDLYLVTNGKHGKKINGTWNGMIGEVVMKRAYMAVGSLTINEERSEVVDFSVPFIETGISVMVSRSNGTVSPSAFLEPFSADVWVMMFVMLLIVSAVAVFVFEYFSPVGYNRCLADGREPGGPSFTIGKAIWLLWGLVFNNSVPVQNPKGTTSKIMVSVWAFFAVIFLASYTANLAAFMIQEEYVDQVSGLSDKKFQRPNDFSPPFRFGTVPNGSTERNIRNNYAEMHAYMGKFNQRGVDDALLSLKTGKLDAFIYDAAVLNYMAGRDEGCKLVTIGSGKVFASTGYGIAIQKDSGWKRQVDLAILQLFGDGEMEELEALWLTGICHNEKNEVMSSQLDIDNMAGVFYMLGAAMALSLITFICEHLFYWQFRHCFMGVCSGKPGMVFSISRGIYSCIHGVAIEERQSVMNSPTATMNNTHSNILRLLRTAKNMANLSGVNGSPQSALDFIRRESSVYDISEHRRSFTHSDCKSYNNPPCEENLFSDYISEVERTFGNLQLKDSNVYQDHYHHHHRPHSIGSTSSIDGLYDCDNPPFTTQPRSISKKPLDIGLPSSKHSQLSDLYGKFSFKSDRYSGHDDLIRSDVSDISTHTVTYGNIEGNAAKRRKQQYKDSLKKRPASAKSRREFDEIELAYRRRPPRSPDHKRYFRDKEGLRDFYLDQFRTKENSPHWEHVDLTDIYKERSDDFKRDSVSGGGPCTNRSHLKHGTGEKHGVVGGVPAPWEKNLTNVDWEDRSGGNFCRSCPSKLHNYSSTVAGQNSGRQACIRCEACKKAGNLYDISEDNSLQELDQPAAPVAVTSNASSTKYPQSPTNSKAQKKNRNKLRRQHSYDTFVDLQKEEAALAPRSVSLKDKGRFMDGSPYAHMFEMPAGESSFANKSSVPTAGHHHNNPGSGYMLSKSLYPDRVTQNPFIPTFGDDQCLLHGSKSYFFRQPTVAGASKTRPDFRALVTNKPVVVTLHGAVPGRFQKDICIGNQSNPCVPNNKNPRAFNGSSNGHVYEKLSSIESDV
Description: ^a Inhibition of binding indicates affinity for NMDA NR2B subunit
3H [R-(R*,S*)]-α-(4-Hydroxy-phenyl)-β-methyl-4-(phenyl-methyl)-1-piperidine propanol) binding
(§1) Male Fullinsdorf albino rats weighing between 150-200 g were used. Membranes were prepared by homogenization of the whole brain minus cerebellum and medulla oblongata with a Polytron (10.000 rpm, 30 seconds), in 25 volumes of a cold Tris-HCl 50 mM, EDTA 10 mM, pH 7.1 buffer. The homogenate was centrifuged at 48.000 g for 10 minutes at 4° C. The pellet was resuspended using the Polytron in the same volume of buffer and the homogenate was incubated at 37° C. for 10 minutes. After centrifugation the pellet was homogenized in the same buffer and frozen at -100° C. for at least 16 hours but not more than 10 days. For the binding assay the homogenate was thawed at 37° C., centrifuged and the pellet was washed three times as above in a Tris-HCl 5 mM, pH 7.4 cold buffer. The final pellet was resuspended in the same buffer and used at a final concentration of 200 μg of protein/ml.
3H [R-(R*,S*)]-α-(4-Hydroxy-phenyl)-β-methyl-4-(phenyl-methyl)-1-piperidine propanol binding experiments were performed using a Tris-HCl 50 mM, pH 7.4 buffer. For displacement experiments 5 nM of 3H [R-(R*,S*)]-α-(4-Hydroxy-phenyl)-β-methyl-4-(phenyl-methyl)-1-piperidine propanol were used and non specific binding was measured using 10 μM of tetrahydroisoquinoline and usually it accounts for 10% of the total. The incubation time was 2 hours at 4° C. and the assay was stopped by filtration on Whatmann GF/B glass fiber filters (Unifilter-96, Packard, Zurich, Switzerland). The filters were washed 5 times with cold buffer. The radioactivity on the filter was counted on a Packard Top-count microplate scintillation counter after addition of […] of microscint 40 (Canberra Packard S. A., Zurich, Switzerland).
The effects of compounds were measured using a minimum of 8 concentrations and repeated at least once. The pooled normalized values were analyzed using a non-linear regression calculation program which provide IC50 with their relative upper and lower 95% confidence limits (RS1, BBN, USA).

NMDA NR1 + NR2B = target: T2, NMDA NR1 + NR2B (Homo sapiens, UniProt Q05586+Q13224); experiment: Block of recombinant NMDA receptor subtype NR1 + NR2B expressed in Xenopus oocytes; type: cell-based
T2 construct: expressed in transfected cells; host or cells: Xenopus oocytes
Source text: (§2) ^c Indicates the ability to block selectively recombinant NMDA receptor
(§3) subtypes expressed in Xenopus oocytes.

NMDA NR1 + NR2A = target: T3, NMDA NR1 + NR2A (Homo sapiens, UniProt Q05586+Q12879); experiment: Block of recombinant NMDA receptor subtype NR1 + NR2A expressed in Xenopus oocytes; type: cell-based
T3 construct: expressed in transfected cells; host or cells: Xenopus oocytes
T3 sequence (Q12879 23-1464, other chains not shown): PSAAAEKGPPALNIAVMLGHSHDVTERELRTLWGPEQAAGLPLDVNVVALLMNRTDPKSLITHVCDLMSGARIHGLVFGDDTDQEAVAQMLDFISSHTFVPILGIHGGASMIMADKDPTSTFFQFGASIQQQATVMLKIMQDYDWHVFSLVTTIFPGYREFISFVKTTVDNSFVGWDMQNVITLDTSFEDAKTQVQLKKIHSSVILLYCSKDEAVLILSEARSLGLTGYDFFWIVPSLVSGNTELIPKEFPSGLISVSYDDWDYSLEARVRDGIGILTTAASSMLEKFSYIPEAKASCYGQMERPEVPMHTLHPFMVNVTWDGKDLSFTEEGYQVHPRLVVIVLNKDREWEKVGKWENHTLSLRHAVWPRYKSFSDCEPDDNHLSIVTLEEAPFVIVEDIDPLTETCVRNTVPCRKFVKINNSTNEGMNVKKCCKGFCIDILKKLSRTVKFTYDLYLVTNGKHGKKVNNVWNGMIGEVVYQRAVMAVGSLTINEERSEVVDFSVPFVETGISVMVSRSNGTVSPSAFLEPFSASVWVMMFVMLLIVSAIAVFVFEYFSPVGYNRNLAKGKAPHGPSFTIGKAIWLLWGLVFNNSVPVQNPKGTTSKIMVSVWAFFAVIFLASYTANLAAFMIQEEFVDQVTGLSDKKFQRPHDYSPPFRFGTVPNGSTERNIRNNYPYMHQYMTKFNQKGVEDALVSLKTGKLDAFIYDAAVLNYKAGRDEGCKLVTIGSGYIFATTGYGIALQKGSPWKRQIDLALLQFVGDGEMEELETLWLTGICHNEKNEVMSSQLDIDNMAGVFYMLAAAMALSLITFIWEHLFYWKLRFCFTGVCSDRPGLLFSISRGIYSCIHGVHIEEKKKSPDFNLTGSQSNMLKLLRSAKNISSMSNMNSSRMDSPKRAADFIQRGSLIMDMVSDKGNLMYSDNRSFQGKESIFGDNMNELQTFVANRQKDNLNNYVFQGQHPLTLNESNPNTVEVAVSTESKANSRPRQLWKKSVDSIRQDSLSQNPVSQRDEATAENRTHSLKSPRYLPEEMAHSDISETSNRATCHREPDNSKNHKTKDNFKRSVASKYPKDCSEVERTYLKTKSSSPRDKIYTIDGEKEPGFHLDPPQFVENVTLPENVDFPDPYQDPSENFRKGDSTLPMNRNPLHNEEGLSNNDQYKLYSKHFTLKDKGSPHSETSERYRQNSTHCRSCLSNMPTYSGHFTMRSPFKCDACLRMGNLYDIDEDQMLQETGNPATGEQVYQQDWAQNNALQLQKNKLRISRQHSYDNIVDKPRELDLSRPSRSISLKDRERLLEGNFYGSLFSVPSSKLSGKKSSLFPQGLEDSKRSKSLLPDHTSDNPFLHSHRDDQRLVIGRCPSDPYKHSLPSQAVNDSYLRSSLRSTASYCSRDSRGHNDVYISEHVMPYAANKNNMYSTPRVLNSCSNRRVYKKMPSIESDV
Source text: as §2, §3

[3] = target: T4, recombinant human ERG potassium channels (Homo sapiens, UniProt Q12809); experiment: Inhibition of the HERG K+ channel, whole-cell patch-clamp, transfected CHO cells; type: cell-based; conditions: concentrations above 10 μM not tested
T4 construct: expressed in transfected cells; host or cells: CHO cells, stably transfected with pcDNA3-HERG
T4 sequence (Q12809 whole entry): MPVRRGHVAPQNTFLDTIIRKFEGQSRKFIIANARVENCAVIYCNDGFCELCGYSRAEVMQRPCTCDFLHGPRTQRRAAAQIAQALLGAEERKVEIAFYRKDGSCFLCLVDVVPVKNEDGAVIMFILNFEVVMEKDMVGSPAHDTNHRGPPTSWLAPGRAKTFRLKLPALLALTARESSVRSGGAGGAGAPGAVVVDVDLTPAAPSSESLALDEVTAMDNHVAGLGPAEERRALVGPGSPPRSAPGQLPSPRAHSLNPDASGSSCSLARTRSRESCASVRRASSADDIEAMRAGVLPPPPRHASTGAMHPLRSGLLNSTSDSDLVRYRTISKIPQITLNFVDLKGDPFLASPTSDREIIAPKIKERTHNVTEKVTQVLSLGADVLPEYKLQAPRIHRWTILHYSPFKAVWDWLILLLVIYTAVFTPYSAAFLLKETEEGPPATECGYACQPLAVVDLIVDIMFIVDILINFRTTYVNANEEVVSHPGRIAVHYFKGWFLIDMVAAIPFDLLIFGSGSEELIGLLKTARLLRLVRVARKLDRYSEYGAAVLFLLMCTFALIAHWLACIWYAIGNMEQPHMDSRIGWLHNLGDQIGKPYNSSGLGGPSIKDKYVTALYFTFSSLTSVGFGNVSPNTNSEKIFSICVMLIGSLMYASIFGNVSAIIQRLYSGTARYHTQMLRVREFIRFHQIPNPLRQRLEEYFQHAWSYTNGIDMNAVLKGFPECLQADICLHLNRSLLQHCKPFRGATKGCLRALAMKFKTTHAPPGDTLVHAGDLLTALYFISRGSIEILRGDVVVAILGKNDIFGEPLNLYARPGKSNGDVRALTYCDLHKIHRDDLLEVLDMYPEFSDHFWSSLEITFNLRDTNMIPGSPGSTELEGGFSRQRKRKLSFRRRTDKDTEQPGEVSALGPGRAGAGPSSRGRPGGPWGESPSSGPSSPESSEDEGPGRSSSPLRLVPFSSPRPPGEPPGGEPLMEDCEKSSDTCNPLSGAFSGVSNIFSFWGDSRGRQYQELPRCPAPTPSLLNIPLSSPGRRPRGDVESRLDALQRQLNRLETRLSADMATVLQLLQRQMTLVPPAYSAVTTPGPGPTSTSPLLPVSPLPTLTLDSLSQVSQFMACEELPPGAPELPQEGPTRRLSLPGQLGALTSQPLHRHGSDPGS
Source text: Method 3 Methods for Studying the Inhibition of the HERG K^+ Channel CHO cells were stably transfected by a pcDNA3-HERG expression vector containing a SV40-neo cassette for selection. Cells were thinly plated into 35 mm dishes and used for the electrophysiological experiment 1/2-3 d later. […] A 10-mM stock solution of the test compound was made from pure DMSO. Test solution were made by at least 1000-fold dilution of the stock solution into the extracellular saline. […] The whole-cell configuration of the patch-clamp technique was used for the experiments. […] The membrane current was recorded for at least 3 min (18 stimuli) before compound application (control), and then for another two 3-min intervals in presence of two different concentrations of the compound. The current amplitudes (Itest) at the end of each compound application interval were divided by the mean current amplitude (Icontrol) during the initial control period to calculate the percentage effect of the compound: effect (%)=(1-Itest /Icontrol)·100. […] If after the first experiment the IC50 turned out to lie outside the range between the two chosen concentrations the concentrations were changed to bracket the IC50 in the following experiments. The compound was tested on at least three cells.

α1-adrenergic receptors = experiment: 3H-Prazosin binding; parameters: species or system rat (Male Fullinsdorf albino rats); conditions: rat brain membranes, 0.2 nM 3H-Prazosine, 30 minutes at room temperature, pH 7.4; read-out: Inhibition of [3H]-Prazosin binding IC50
Description: ^b Inhibition of binding indicates affinity for α1
as §1, with “a Plytron” for “a Polytron”, “at -80°” for “at -100°”, “Tris-HCl 15mM,” for “Tris-HCl 5 mM,”, “[…]” for “200 μg”
3H-Prazosin binding experiments were performed using a Tris-HCl 50 mM, pH 7.4 buffer. For displacement experiments 0.2 nM of 3H-Prazosine were used and non specific binding was measured using […] of Chlorpromazine. The incubation time was 30 minutes at room temperature and the assay was stopped by filtration on Whatman GF/B glass fiber filters (Ubrifilter-96, Canberra Packard S. A., Zurich, Switzerland). The filters were washed 5 times with cold buffer. The radioactivity on the filter was counted on a Packard Top-count microplate scintillation counter after addition of […] of microscint 40 (Canberra Packard S. A., Zurich, Switzerland). The effects of compounds were measured using a minimum of 8 concentrations and repeated at least once. The pooled normalized values were analyzed using a non-linear regression calculation program which provide IC50 with their relative upper and lower 95% confidence limits (RS1, BBN, USA).

SMILES	ED50 [1]	IC50 [2]	IC50 (NMDA NR1 + NR2B)	IC50 (NMDA NR1 + NR2A)	IC50 [3]	IC50 (α1-adrenergic receptors)
Cc1ccc(OC2CCN(CCS(=O)(=O)c3ccc(O)cc3)CC2)cc1 [Compound 2, 4-[2-(4-p-tolyloxy-piperidin-1-yl)-ethanesulfonyl]-phenol]	0.84 mg/kg	0.024 µM and 0.011 to 0.024 µM	< 0.01 µM	> 10 µM	4.7 µM	16 µM
O=S(=O)(CCN1CCC(Cc2ccccc2)CC1)c1ccc(O)cc1 [Compound 1, 4[-2-(4-benzyl-piperidine-1-yl)-ethanesulfonyl]-phenol]	1.1 mg/kg	0.018 µM and 0.011 to 0.024 µM	< 0.01 µM	> 10 µM	4 µM	42 µM
Cc1ccc(CC2(O)CCN(CCOc3ccc(O)cc3)CC2)cc1 [Compound 9, 1-[2-(4-hydroxy-phenoxy)-ethyl]-4-(4-methyl-benzyl)-piperidin-4-ol, reference compound]	2.3 mg/kg	–	0.003 µM	> 100 µM	0.69 µM	3.5 µM
O=S(=O)(CCN1CC[C@H](Cc2ccccc2)[C@H](O)C1)c1ccc(O)cc1 [Compound 3, (-)(3S,4S)-4-benzyl-1-[2-(4-hydroxy-benzenesulfonyl)-ethyl]-piperidin-3-ol]	3.8 mg/kg	0.014 µM and 0.011 to 0.024 µM	0.038 µM	> 10 µM	–	55 µM
Cc1ccc(C[C@H]2CCN(CCS(=O)(=O)c3ccc(O)cc3)C[C@H]2O)cc1 (single isomer, unassigned) [Compound 6, (-)(cis)-1-[2-(4-hydroxy-benzenesulfonyl)-ethyl]-4-(4-methyl-benzyl)-piperidin-3-ol]	2.2 mg/kg	0.011 µM and 0.011 to 0.024 µM	0.008 µM	> 10 µM	3.7 µM	88 µM
